Measurements taken from US20210000911A1, “COMPOSITIONS AND METHODS FOR PROTECTING EPITHELIAL AND BARRIER INTEGRITY” (OCUNEXUS THERAPEUTICS, INC., priority 2019, published 2021).
“Also recorded” adds a separate entry of the source.

What was measured:
[1] = system: ARPE-19 cells; assay: Trans-epithelial electrical resistance (TEER) of ARPE-19 monolayer after HG and cytokine challenge; assay type: cell-based, Human; conditions: ARPE-19, HG 32.5 mM + TNF-α and IL-1β 10 ng/mL, Peptide5 25 μM
Experimental: (§1) Cell Culture—Human adult retinal pigment epithelial cells (ARPE-19; American Type Culture Collection, USA) were cultured in Dulbecco's Modified Eagle Medium Nutrient Mixture F-12 (DMEM-F12; Thermofisher Scientific Inc., USA) supplemented with 10% foetal bovine serum (FBS; Invitrogen, USA) and a 1× antibiotics and antimycotics mixture (AA, 100× stock) at 37° C. in a humidified 5% CO2 incubator. Cells were grown in T75 flasks and the medium was changed twice per week until confluent.
HG and/or cytokine challenge—At passage 6-12, cells were plated at 2.5×10^5 cells/mL in 8-well chamber slides for immunohistochemical studies, 6-well plates for TEER and FITC-dextran studies or 96-well plates for the […] dehydrogenase (LDH) and ATP release assay until confluent after which the culture medium was changed to treatments in serum-free DMEM-F12 containing 1×AA for 24 h. […]
Measurement of Trans-Epithelial Electrical Resistance (TEER)—Cells were seeded at 2.5×10^5 cells/mL on polyester membranes in Transwell® 6-well plates (Corning Incorporated, USA) in growth medium and incubated for 72 h. […] Net TEER values were calculated by subtracting the resistance in Transwell inserts without cells from the experimental values obtained from chamber containing cells. […] The sample size was three readings per well, repeated three times in separate experiments.

[2] = system: ARPE-19 cells; assay: Connexin43 immunohistochemistry (gap junction plaque localisation); assay type: cell-based, Human; conditions: ARPE-19, HG + cytokines, 72 h
Experimental: as §1, with “confluent. […]” for “confluent.”
(§2) Image analysis and quantification of collagen IV immunolabelling—Images were taken on an Olympus FV1000 confocal laser scanning microscope (Olympus, Japan). […] Both ZO-1 and connexin43 expression were qualitatively assessed for changes in localisation. Collagen IV labelling was quantified from four images taken per well and the experiment was repeated three times. […] The total area covered by collagen IV was then quantified using the ‘measure’ feature in ImageJ. Collagen IV results were expressed as a percentage of untreated (basal) cells.

[3] = system: ARPE-19 cells; assay: ZO-1 immunohistochemistry (localisation); assay type: cell-based, Human; conditions: ARPE-19, HG + cytokines, Peptide5 25 μM, 72 h
Experimental: as §1, with “confluent. […]” for “confluent.”
as §2

[4] = system: ARPE-19 cells; assay: Lactate dehydrogenase (LDH) release assay; assay type: cell-based, Human; conditions: ARPE-19, HG + cytokines, 72 h
Experimental: as §1, with “confluent. […]” for “confluent.”
Lactate Dehydrogenase (LDH) assay—Cells were seeded at 2.5×10^5 cells/mL in 96-well plates until confluent after which the culture medium was changed to treatments in serum-free DMEM-F12 containing 1×AA for 72 h. […] The amount of LDH released was assessed using an LDH assay kit as per manufacturer instructions (Sigma-Aldrich, USA). […] A Synergy 2 multi-mode plate reader (BioTek Instruments Inc., USA) was used to measure the absorbance of the formazan dye in the medium at 490 nm (OD490). LDH release (%) was calculated relative to basal conditions.

[5] = biological target: connexin43 hemichannel (human, UniProt P17302 2-382); assay: cell-based or functional assay
connexin43 hemichannel, sequence (P17302 2-382): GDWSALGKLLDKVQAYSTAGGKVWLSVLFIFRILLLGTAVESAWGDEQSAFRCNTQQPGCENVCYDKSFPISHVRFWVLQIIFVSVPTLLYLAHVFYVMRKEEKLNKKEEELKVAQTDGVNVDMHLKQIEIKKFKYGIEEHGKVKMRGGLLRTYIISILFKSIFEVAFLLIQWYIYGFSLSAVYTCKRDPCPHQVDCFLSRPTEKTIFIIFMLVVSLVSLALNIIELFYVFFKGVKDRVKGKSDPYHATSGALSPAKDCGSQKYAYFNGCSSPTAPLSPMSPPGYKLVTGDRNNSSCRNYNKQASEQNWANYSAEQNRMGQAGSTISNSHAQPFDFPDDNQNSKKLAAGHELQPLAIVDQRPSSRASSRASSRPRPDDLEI

[6] = Peptide5 25 μM plus exogenous ATP 100 nM

FITC-dextran permeability at 72 h (% relative to blank wells), ARPE-19 monolayer with HG and cytokines, Peptide5 at 25 uM [5] [%]	Molecule	TEER relative to basal conditions ([1]; 48 h)	TEER relative to basal conditions ([1]; 72 h)	Connexin43 localisation with exogenously added ATP (qualitative) [2, 6]	Connexin43 localisation at the cell membrane (qualitative) ([2]; Peptide5 25 μM)	ZO-1 localisation at the cell membrane (qualitative) [3]	LDH release with exogenously added ATP [4, 6]	LDH release relative to basal conditions ([4]; Peptide5 25 μM)
–	H-Val-Asp-Cys-Phe-Leu-Ser-Arg-Pro-Thr-Glu-Lys-Thr-OH (H-VDCFLSRPTEKT-OH) [Peptide5]	no statistically significant difference between Peptide5-treated and basal cells; also recorded: prevented a decrease in TEER at both time-points	no statistically significant difference between Peptide5-treated and basal cells; also recorded: prevented a decrease in TEER at both time-points	change in connexin43 gap junction localisation; also recorded: again a loss of connexin43 at cell membranes	protected against the redistribution of connexin43 localisation away from the cell membrane and into the cytoplasm; also recorded: connexin43 is kept in its normal pattern; also recorded: maintained connexin43 primarily in gap junction plaques, similar to basal conditions	maintained ZO-1 localisation to cell membranes similar to basal conditions	once-again increased LDH release; also recorded: LDH levels were increased to injury levels	LDH release remains low; also recorded: prevented LDH release relative to basal conditions; also recorded: reduced by Peptide5 treatment
33.2	H-VDCFLSRPTEKT-OH [Peptide5 (H-Val-Asp-Cys-Phe-Leu-Ser-Arg-Pro-Thr-Glu-Lys-Thr-OH)]	–	–	–	–	–	–	–
